Source: patent publication US7799343B2, “Safer control of broadleaf weeds in turf with granular formulations of ALS inhibiting herbicides” (priority 2006, dated 2010)

Key:
Type in all cases: in vivo
tall fescue = test: Turf tolerance field study, tall fescue, Indiana 2004; details: 14 Days After Treatment, g ai/Ha: penoxsulam 35, imazaquin 104, bispyribac-sodium 75, trifloxysulfuron-sodium 9.2, metsulfuron-methyl 10.4; for Cover: 0 = bare ground, 100 = thick solid stand; for Color: 0 = brown to dead turf, 10 = lush green; for Injury: 0 = no visible injury, 10 = dead turf
Procedure: (§1) Turf tolerance studies were conducted in monoculture stands of perennial ryegrass and tall fescue. Replicated trials, containing a minimum of three replications and having individual plots ranging in size from 25 to 50 ft. sq (2.3 to 4.6 square meters), were initiated in the late spring when turf was actively growing. […] Natural rainfall and supplemental irrigation, fertilizer, fungicides and insecticides were used to maintain healthy turf throughout the study period. Turf tolerance evaluations were made weekly for 8 weeks after application. Evaluations compared treated and untreated plot areas and consisted of one or all of the following evaluations: 1) visual estimate of turf injury made on a 0 to 10 scale with 0 indicating no visible injury symptoms, 10 being dead turf and 3 or less being commercially acceptable; 2) visual estimate of turf color made on a 0 to 10 scale with 0 being brown to dead turf, 10 being a lush green turf of highest quality and 6.5 being commercially acceptable; 3) visual estimate of turf density made on a 0 to 100 scale with 0 being bare ground, 100 being a thick solid stand of highest quality and 90 percent density being commercially acceptable; 4) visual estimate of turf quality made on a 0 to 10 scale with 0 being brown to dead turf, 10 being a lush green turf of highest quality and 6.5 being commercially acceptable.

perennial ryegrass [1] = test: Turf tolerance field study, perennial ryegrass, Indiana 2004; details: 21 Days After Treatment, g ai/Ha: penoxsulam 35, imazaquin 104, bispyribac-sodium 75, trifloxysulfuron-sodium 9.2, metsulfuron-methyl 10.4; for Cover: 0 = bare ground, 100 = thick solid stand; for Color: 0 = brown to dead turf, 10 = lush green; for Injury: 0 = no visible injury, 10 = dead turf
Procedure: as §1

perennial ryegrass [2] = test: Perennial ryegrass turf quality field study, Pennsylvania 2004; details: perennial ryegrass, 0 = brown to dead turf, 10 = highest quality, g ai/Ha: penoxsulam 35, imazaquin 104, bispyribac-sodium 75, trifloxysulfuron-sodium 9.2, metsulfuron-methyl 10.4; for Turf Quality 4 DAA: 4 Days After Application; for Turf Quality 16 DAA: 16 Days After Application; for Turf Quality 36 DAA: 36 Days After Application
Procedure: as §1

[3] = test system: dandelion, Taraxacum officinale (TAROF); test: Postemergent weed control field study, Pennsylvania 2004, TAROF; details: Granule formulation, g ai/Ha: penoxsulam 35, imazaquin 104, bispyribac-sodium 75, trifloxysulfuron-sodium 9.2, metsulfuron-methyl 10.4; for Percent Weed Control TAROF 29DAA: 29 Days After Application; for Percent Weed Control TAROF 56DAA: 56 Days After Application
From the text: (§2) The ALS inhibiting herbicides are useful in controlling broadleaf weeds and sedges in turfgrass. They are particularly effective against most important weeds in this application, viz., white clover, Trifolium repens L. (TRFRE); buckhorn plantain, Plantago lanceolata L. (PLALA); dandelion, Taraxacum officinale (TAROF); broadleaf plantain, Plantago major L. (PLAMA); ground ivy, Glechoma hederacea L. (GLEHE); common lespedeza, Lespedeza striata (LESST); pennywort (dollarweed), Hydrocotyle spp (HYDSS); Virginia buttonweed, Diodia virginiana L. (DIQVI) English daisy, Bellis perennis L. (BELPE); annual bluegrass, Poa annua (POANN); and yellow nutsedge, Cypres esculentus L. (CYPES).
(§3) Field studies were conducted in established turfgrass sites containing a natural population of target broadleaf weeds. Replicated trials, containing a minimum of three replications and having individual plots ranging in size from 25 to 50 ft. sq (2.3 to 4.6 square meters), were initiated in the late spring when turf and weeds were actively growing. Granule treatments were uniformly applied to individual plots using a common hand-shaker method. Applications were made in the early morning when dew was present. Natural rainfall and supplemental irrigation were used to maintain healthy turf and active weed growth throughout the study period. Control of each weed species in the study site was made at approximately 2, 4 and 8 weeks after treatment. Control was determined visually by comparing treated and untreated weeds and scored on a 0 to 100 percent scale where 0 corresponds to no control and 100 corresponds to complete kill.

[4] = test system: white clover, Trifolium repens L. (TRFRE); test: Postemergent weed control field study, Pennsylvania 2004, TRFRE; details: g ai/Ha: penoxsulam 35, imazaquin 104, bispyribac-sodium 75, trifloxysulfuron-sodium 9.2, metsulfuron-methyl 10.4; for Percent Weed Control TRFRE 29DAA: 29 Days After Application; for Percent Weed Control TRFRE 56DAA: 56 Days After Application
From the text: as §2
as §3, with “Granule treatments were uniformly applied to individual plots using a common hand-shaker method.” left out

[5] = test system: buckhorn plantain, Plantago lanceolata L. (PLALA); test: Postemergent weed control field study, Pennsylvania 2004, PLALA; details: g ai/Ha: penoxsulam 35, imazaquin 104, bispyribac-sodium 75, trifloxysulfuron-sodium 9.2, metsulfuron-methyl 10.4; for Percent Weed Control PLALA 29DAA: 29 Days After Application; for Percent Weed Control PLALA 56DAA: 56 Days After Application
From the text: as §2
as §3, with “Granule treatments were uniformly applied to individual plots using a common hand-shaker method.” left out

[6] = test system: annual bluegrass, Poa annua (POANN); test: Postemergent weed control field study, Pennsylvania 2004, POANN; details: g ai/Ha: penoxsulam 35, imazaquin 104, bispyribac-sodium 75, trifloxysulfuron-sodium 9.2, metsulfuron-methyl 10.4; for Percent Weed Control POANN 29DAA: 29 Days After Application; for Percent Weed Control POANN 56DAA: 56 Days After Application
From the text: as §2, §3

[7] = test system: dandelion, Taraxacum officinale (TAROF); test: Postemergent weed control field study, Pennsylvania 2004, TAROF; details: Liquid formulation, g ai/Ha: penoxsulam 35, imazaquin 104, bispyribac-sodium 75, trifloxysulfuron-sodium 9.2, metsulfuron-methyl 10.4; for Percent Weed Control TAROF 29DAA: 29 Days After Application; for Percent Weed Control TAROF 56DAA: 56 Days After Application

| Compound | Cover (tall fescue; Granule formulation) | Color (tall fescue; Granule formulation) | Injury (tall fescue; Granule formulation) | Cover (tall fescue; Liquid formulation) | Color (tall fescue; Liquid formulation) | Injury (tall fescue; Liquid formulation) | Cover (perennial ryegrass [1]; Granule formulation) | Color (perennial ryegrass [1]; Granule formulation) | Injury (perennial ryegrass [1]; Granule formulation) | Cover (perennial ryegrass [1]; Liquid formulation) | Color (perennial ryegrass [1]; Liquid formulation) | Injury (perennial ryegrass [1]; Liquid formulation) | Turf Quality 4 DAA (perennial ryegrass [2]; Granule formulation) | Turf Quality 16 DAA (perennial ryegrass [2]; Granule formulation) | Turf Quality 36 DAA (perennial ryegrass [2]; Granule formulation) | Turf Quality 4 DAA (perennial ryegrass [2]; Liquid formulation) | Turf Quality 16 DAA (perennial ryegrass [2]; Liquid formulation) | Turf Quality 36 DAA (perennial ryegrass [2]; Liquid formulation) | Percent Weed Control TAROF 29DAA [3] | Percent Weed Control TAROF 56DAA [3] | also measured |
| --- | --- | --- | --- | --- | --- | --- | --- | --- | --- | --- | --- | --- | --- | --- | --- | --- | --- | --- | --- | --- | --- |
| CC(C)C1(C)N=C(c2nc3ccccc3cc2C(=O)O)NC1=O (stereo not shown) [Imazaquin, imazaquin] | 100.0 0-100 Scale | 9.0 0-10 Scale | 0.5 0-10 Scale | 70.0 0-100 Scale | 5.3 0-10 Scale | 5.3 0-10 Scale | 98.8 0-100 Scale | 8.8 0-10 Scale | 1.8 0-10 Scale | 97.5 0-100 Scale | 8.3 0-10 Scale | 3.3 0-10 Scale | 10.0 0 to 10 scale | 3.0 0 to 10 scale | 3.3 0 to 10 scale | 7.7 0 to 10 scale | 3.3 0 to 10 scale | 7.7 0 to 10 scale | 13.9% | 17.8% | Percent Weed Control TRFRE 29DAA ([4]; Granule formulation): 0.0%; Percent Weed Control TRFRE 56DAA ([4]; Granule formulation): 23.3%; Percent Weed Control TRFRE 29DAA ([4]; Liquid formulation): 22.2%; Percent Weed Control TRFRE 56DAA ([4]; Liquid formulation): 11.1%; Percent Weed Control PLALA 29DAA ([5]; Granule formulation): 22.2%; Percent Weed Control PLALA 56DAA ([5]; Granule formulation): 41.1%; Percent Weed Control PLALA 29DAA ([5]; Liquid formulation): 16.7%; Percent Weed Control PLALA 56DAA ([5]; Liquid formulation): 8.3%; Percent Weed Control POANN 29DAA ([6]; Granule formulation): 31.4%; Percent Weed Control POANN 56DAA ([6]; Granule formulation): 18.1%; Percent Weed Control POANN 29DAA ([6]; Liquid formulation): 8.8%; Percent Weed Control POANN 56DAA ([6]; Liquid formulation): 26.2%; Percent Weed Control TAROF 29DAA [7]: 58.9%; Percent Weed Control TAROF 56DAA [7]: 11.1% |
| COc1cc(OC)nc(Oc2cccc(Oc3nc(OC)cc(OC)n3)c2C(=O)O)n1 [Bispyribac-sodium, bispyribac-sodium] | 100.0 0-100 Scale | 9.0 0-10 Scale | 0.0 0-10 Scale | 97.5 0-100 Scale | 8.8 0-10 Scale | 2.0 0-10 Scale | 100.0 0-100 Scale | 8.5 0-10 Scale | 1.0 0-10 Scale | 85.0 0-100 Scale | 6.5 0-10 Scale | 4.5 0-10 Scale | 8.7 0 to 10 scale | 7.3 0 to 10 scale | 10.0 0 to 10 scale | 8.0 0 to 10 scale | 5.7 0 to 10 scale | 10.0 0 to 10 scale | 45.0% | 23.3% | Percent Weed Control TRFRE 29DAA ([4]; Granule formulation): 36.1%; Percent Weed Control TRFRE 29DAA ([4]; Liquid formulation): 88.9%; Percent Weed Control TRFRE 56DAA ([4]; Liquid formulation): 55.6%; Percent Weed Control PLALA 29DAA ([5]; Granule formulation): 27.8%; Percent Weed Control PLALA 56DAA ([5]; Granule formulation): 27.8%; Percent Weed Control PLALA 29DAA ([5]; Liquid formulation): 75.6%; Percent Weed Control PLALA 56DAA ([5]; Liquid formulation): 57.8%; Percent Weed Control POANN 29DAA ([6]; Granule formulation): 40.0%; Percent Weed Control POANN 56DAA ([6]; Granule formulation): 28.9%; Percent Weed Control POANN 29DAA ([6]; Liquid formulation): 28.3%; Percent Weed Control POANN 56DAA ([6]; Liquid formulation): 23.3%; Percent Weed Control TAROF 29DAA [7]: 95.7%; Percent Weed Control TAROF 56DAA [7]: 57.1% |
